From article PMC8810462, “Targeted fluorescent imaging of a novel FITC-labeled PSMA ligand in prostate cancer” (Amino Acids, 2021)

What was measured:
[1] = Ex vivo fluorescence imaging of dissected tumors, tissues and organs (distribution); assay type: in vivo, BALB/c male nude mice; settings: 22Rv1 tumor-bearing mice, 0.5 mg/kg tail vein, 30, 60, 120 min
Protocol: (§1) In vivo fluorescence imaging was performed using the French Biospace Lab in vivo optical imaging system, the PHOTON IMAGER OPTIMA multidimensional real-time awake animal in vivo optical imaging system software was used for analysis, and the FITC exclusive filter was used to collect the fluorescence of PSMA-FITC. All images were collected using the same parameters (lamp voltage, filter, exposure height, exposure time, and field of view). The collected images were processed in a unified manner, and the number of photons per second per centimeter squared per steradian (ph/s/cm^2/sr) was used for analysis. 22Rv1 tumor-bearing mice in the nonblocking group (n = 5) and PC3 tumor-bearing mice (n = 5) were injected with PSMA-FITC (0.5 mg/kg) through the tail vein, and fluorescence imaging was performed at different time points after injection. The 22Rv1 tumor-bearing mice (n = 5) in the blocking group were injected with a mixture of 2-PMPA (2 mg/kg) and PSMA-FITC (0.5 mg/kg), and fluorescence imaging was performed 60 min after the injection. Another 9 22Rv1 tumor-bearing mice were divided into three groups (3/group), PSMA-FITC (0.5 mg/kg) was injected into the tail vein, and the mice were euthanized 30, 60, or 120 min after injection. The tumors, tissues, and organs were dissected, and a fluorescence imaging system was used for in vitro imaging. The ROI was delineated, and the average fluorescence intensity reported.

PSMA (−) PC3 tumor = experiment: In vivo fluorescence imaging of tumor-bearing mice; parameters: species or system BALB/c male nude mice; settings: 0.5 mg/kg tail vein, compared with 22Rv1 tumor-bearing mice
Protocol: (§2) All animal procedures were performed in accordance with the protocol approved by the Animal Care and Use Committee of the PLA General Hospital. BALB/c male nude mice (approximately 3–4 weeks old, with a body weight of 13–15 g) were purchased from Charles River Laboratories (Beijing, China). Then, 0.1 ml (approximately 5 × 10^6 cells) of 22Rv1 cell suspension was subcutaneously injected into the right shoulder of each mouse to form an 22Rv1 tumor xenograft. Vernier calipers were used to measure the length and shortest diameter of the tumor, and the tumor volume was estimated according to the formula (V = 1/2 × long diameter × shortest diameter^2). Fluorescence imaging was performed in vivo and in vitro when the tumor volume reached 200–300 mm^3. The PC3 cell planting method is the same as 22Rv1 cell planting method.
as §1
(§3) All measured values are expressed as the means ± standard deviation. Independent sample t-test was used for statistical analysis, and P < 0.05 was considered statistically significant. To clarify tumor contrast, the region of interest (ROI) was delineated, and the mean fluorescence intensity of tumor tissue (T) and background (B) was collected. TBR was used to represent tumor-background contrast. Normal muscle tissue was selected as the background to outline.

22Rv1 tumor xenograft = experiment: In vivo fluorescence imaging of tumor-bearing mice; parameters: species or system BALB/c male nude mice; settings: for tumor-background ratio (TBR): 60 min after injection, n = 5
Protocol: as §2, §1, §3

[2] = Acute toxicity test (HE staining of organs); assay type: in vivo, ICR male mice; settings: 100 mg/kg tail vein, organs collected 7 days later
Protocol: ICR male mice (approximately 3–4 weeks old, with a body weight of 12–16 g) were injected with PSMA-FITC (100 mg/kg) through the tail vein, and organs were collected 7 days later. The organs were sectioned and stained with HE. The control group was injected with the same volume of normal saline. The steps are the same as described above.

PSMA(+) LNCaP cells = experiment: In vitro confocal fluorescence imaging, cell uptake; assay type: cell-based, human
Protocol: (§4) Both the LNCaP cells and PC3 cells were grown in a T25 cell culture flask (Corning Inc., Corning, NY, USA). The cultured LNCaP cells and PC3 cells were inoculated into a confocal dish and placed in an incubator at 37 °C/5% CO2 for 24 h. The medium was changed 2 h before the cell uptake experiment. The medium was removed, the flask rinsed once with PBS, and 5 μg of PSMA-FITC (100 μl) was added to each dish, which was then filled with medium to a final volume of 2 ml. The cells were incubated in an incubator for 60 min, washed 4 times with PBS buffer containing 0.2% BSA. Add 450 μl 4% paraformaldehyde to fix the cells for 10 min then rinse with PBS for four times. Cell nucleus were stained with 450 μl Hoechst33342 for 10 min and rinsed with PBS for four times. Add 500 μl PBS before observation. The cells were observed under confocal microscope (Olympus FV 1000) in dark room. In the blocking group, the LNCaP cells were pretreated with 2-PMPA (20 μg) for 30 min, and then PSMA-FITC was added and incubated for 60 min. The steps are the same as described above in the dark.

PSMA(−) PC3 cells = experiment: as above; assay type: cell-based, human; settings: 5 μg PSMA-FITC, 37 °C, 60 min
Protocol: as §4

[3] = 0.5 mg/kg tail vein, 22Rv1 tumor-bearing mice

SMILES: O=C(O)CCC(NC(=O)NC(CCCCNC(=O)CCCCCNC(=S)Nc1ccc2c(c1)C(=O)OC21c2ccc(O)cc2Oc2cc(O)ccc21)C(=O)O)C(=O)O (stereo not drawn) [PSMA-FITC]
- fluorescence intensity of liver and small intestine (ex vivo) [1]: strong fluorescence intensity
- fluorescence intensity of the bladder (ex vivo) [1]: obviously at a high level
- uptake by the kidney (ex vivo fluorescence) [1]: higher than that measured in other normal organs
- tumor uptake of the probe (PSMA (−) PC3 tumor): significantly lower than that of 22Rv1 tumor-bearing mice
- time of highest tumor-background contrast after injection (22Rv1 tumor xenograft; [3]): 60 min
- time to tumor targeting after injection (22Rv1 tumor xenograft; [3]): ≤ 30 min
- tumor-background ratio (TBR) (22Rv1 tumor xenograft; blocking group, coinjection of 2-PMPA 2 mg/kg with PSMA-FITC 0.5 mg/kg): 0.44 ± 0.13
- tumor-background ratio (TBR) (22Rv1 tumor xenograft; nonblocking group, PSMA-FITC 0.5 mg/kg tail vein): 3.45 ± 0.31
- organ damage (histopathology, HE staining) [2]: not damaged
- fluorescence signal in cells (confocal microscopy) (PSMA(+) LNCaP cells; LNCaP cells pretreated with 2-PMPA (20 μg) for 30 min, then PSMA-FITC 60 min): negligible fluorescence signaling
- fluorescence signal in cells (confocal microscopy) (PSMA(+) LNCaP cells; LNCaP cells, 5 μg PSMA-FITC, 37 °C, 60 min, no blocking): Significant fluorescence signals
- fluorescence signal in cells (confocal microscopy) (PSMA(−) PC3 cells): negligible fluorescence signaling
